Assay results as given in ChEMBL document CHEMBL5257050, “Structure Revisions of Phenolic Bisabolane Sesquiterpenes and a Ferroptosis Inhibitor from the Marine-Derived Fungus Aspergillus versicolor YPH93” (J Nat Prod, 2023).
pEC50: −log10 of the molar value. Calls of active or inactive are those of the source. The calls are words filed in the database; no cut-off is given here.

Tests used:
[1] = test system: HT-1080; test: Cytotoxicity against human HT-1080 cells assessed as reduction in cell viability at 50 uM measured for 48 hrs by CCK-8 assay; type: functional, cell-based
[2] = Antioxidant activity assessed as DPPH radical scavenging activity at 10 uM measured for 30 mins relative to control; type: functional
[3] = test system: CCRF-CEM; test: Anti-necroptosis activity against TNFalpha-induced human CCRF-CEM cells assessed as cell viability at 10 uM pretreated for 0.5 hrs followed by TNFalpha stimulation by Cell-titer-glo assay; type: functional, cell-based
[4] = test system: CCRF-CEM; test: Induction of necrosis in H2O2-induced human CCRF-CEM cells at 10 uM pretreated for 0.5 hrs followed by H2O2 stimulation by Cell-titer-glo assay; type: functional, cell-based
[5] = test system: HT-1080; test: Anti-ferroptotic activity against erastin/RSL3-induced ferroptosis in human HT-1080 cells assessed as cell viability at 1 uM pretreated for 0.5 hrs followed by erastin/RSL3 stimulation by Cell-titer-glo assay; type: functional, cell-based
[6] = test system: HT-1080; test: Anti-ferroptotic activity against erastin/RSL3-induced ferroptosis in human HT-1080 cells assessed as cell viability at 10 uM pretreated for 0.5 hrs followed by erastin/RSL3 stimulation by Cell-titer-glo assay; type: functional, cell-based
[7] = test system: HT-1080; test: Anti-ferroptotic activity against erastin-induced ferroptosis in human HT-1080 cells assessed as cell viability pretreated for 0.5 hrs followed by erastin stimulation by Cell-titer-glo assay; type: functional, cell-based
[8] = test system: HT-1080; test: Anti-ferroptotic activity against RSL3-induced ferroptosis in human HT-1080 cells assessed as cell viability pretreated for 0.5 hrs followed by RSL3 stimulation by Cell-titer-glo assay; type: functional, cell-based
[9] = test system: CCRF-CEM; test: Anti-ferroptotic activity against RSL3-induced ferroptosis in human CCRF-CEM cells assessed as cell viability at 10 uM pretreated for 0.5 hrs followed by RSL3 stimulation by Cell-titer-glo assay; type: functional, cell-based
[10] = test system: HT-1080; test: Anti-ferroptotic activity against erastin-induced ferroptosis in human HT-1080 cells assessed as cell viability at 10 uM pretreated for 0.5 hrs followed by erastin stimulation by Cell-titer-glo assay; type: functional; settings: read-out: Activity

| SMILES | Activity [1] | Activity [2] | Activity [3] | Activity [4] | Activity [5] | Activity [6] | pEC50 [7] | pEC50 [8] | Activity [9] | viability at 10 µM [10] |
| --- | --- | --- | --- | --- | --- | --- | --- | --- | --- | --- |
| C[C@]1(CO)CCC[C@](C)(c2ccc(C(=O)O)cc2O)O1 | inactive | Active | inactive | inactive | – | – | – | – | – | – |
| CC(O)(CO)CCCC(C)(O)c1ccc(C(=O)O)cc1O (stereo not given) | inactive | Active | inactive | inactive | – | – | – | – | – | – |
| CC(=O)OCC(C)(O)CCCC(C)(O)c1ccc(C(=O)O)cc1O (stereo not given) | inactive | Active | inactive | inactive | – | – | – | – | – | – |
| CC1(c2ccc(C(=O)O)cc2O)CCC(=O)O1 (stereo not given) | inactive | Active | inactive | inactive | – | – | – | – | – | – |
| CC1(C)O[C@@](C)(c2ccc(C(=O)O)cc2O)[C@H](O)C[C@@H]1O (relative stereo) | inactive | Active | inactive | inactive | – | – | – | – | – | – |
| C[C@@]1(CO)CCC[C@](C)(c2ccc(C(=O)O)cc2O)O1 (relative stereo) | inactive | Active | inactive | inactive | – | – | – | – | – | – |
| CC(CCCC(C)(O)c1ccc(C(=O)O)cc1O)C(=O)O (stereo not given) | inactive | Active | inactive | inactive | – | – | – | – | – | – |
| C[C@]1(c2ccc(C(=O)O)cc2O)CC[C@H](O)[C@](C)(CO)O1 (relative stereo) | inactive | Active | inactive | inactive | – | – | – | – | – | – |
| CCOC(=O)c1ccc(NC2CCCCC2)c(N)c1 | – | Active | – | – | Active | – | – | – | – | – |
| CC1(C)O[C@@](C)(c2ccc(C(=O)O)cc2O)C[C@H](O)[C@@H]1O (relative stereo) | inactive | Active | inactive | inactive | – | – | – | – | – | – |
| CC1(C)CCC[C@](C)(c2ccc(C(=O)O)cc2O)O1 | inactive | Active | inactive | inactive | – | – | – | – | – | – |
| C/C(=C\CCC(C)(O)CO)c1ccc(C(=O)O)cc1O (stereo not given) | inactive | Active | inactive | inactive | – | Active | 5.47 | 5.68 | Active | – |
| CC(=O)OC[C@@]1(C)CCC[C@@](C)(c2ccc(C(=O)O)cc2O)O1 | inactive | Active | inactive | inactive | – | – | – | – | – | 50% |
| Cc1cccc(O)c1-c1cc(O)c(C)c(=O)o1 | inactive | Active | inactive | inactive | – | – | – | – | – | – |
| C/C(=C/CCC(C)(C)O)c1ccc(C(=O)O)cc1O | inactive | Active | inactive | inactive | – | – | – | – | – | – |
| CC(C)(O)CCCC(C)(O)c1ccc(C(=O)O)cc1O (stereo not given) | inactive | Active | inactive | inactive | – | – | – | – | – | – |
| CC1(C)O[C@@](C)(c2ccc(C(=O)O)cc2O)C[C@H](O)[C@H]1O (relative stereo) | inactive | Active | inactive | inactive | – | – | – | – | – | – |
| CC(=O)OC[C@@]1(C)CCC[C@](C)(c2ccc(C(=O)O)cc2O)O1 (relative stereo) | inactive | Active | inactive | inactive | – | – | – | – | – | – |
